Where “and” joins values, the source holds several entries; their conditions need not be identical. Identical values can stand only once. Like-named read-outs stand apart in the source and are kept apart here.
Assays:
Type in all cases: cell-based
AGS cells = assay: 3D cell proliferation assay (CellTiter-Glo 3D), AGS; details: 5 days, read-out: 3D Proliferation Inhibition AGS_IC50
Protocol: (§1) Using a nanoliter liquid handling system (LABCYTE, P-0200), the diluted test compounds were added to a 384-well low-adsorption cell culture plate. Cells were seeded into the wells, and the plate was placed in an incubator at 37° C. with 5% CO2. After co-incubating the compounds and cells for 5 days, CellTiter-Glo® 3D reagent was added. Luminescence values were measured using an EnVision Multilabel Plate Reader (luminescence is proportional to the ATP content in the system, and ATP content directly reflects the number of viable cells). Finally, the IC50 values (half-maximal inhibitory concentrations) of the compounds were determined using non-linear fitting equations in XLFit software with the following parameters: […]
(§2) X: Logarithm of compound concentration • Y: Inhibition rate (%)
(§3) [formula] • Negative control: DMSO • Positive control: Medium only

AsPC-1 cells = assay: 3D cell proliferation assay (CellTiter-Glo 3D), AsPC-1; details: 5 days, read-out: 3D Proliferation Inhibition AsPC-1_IC50
Protocol: as §1, §2, §3

pERK in AGS cells = assay: ERK phosphorylation cell assay, AGS; details: 3 hours compound incubation, read-out: pERK AGS_IC50
Protocol: (§4) • Day 1: AGS cells were seeded into a 384-well cell culture plate and incubated overnight at 37° C. with 5% CO2 in a cell culture incubator. • Day 2: Compounds were added to the plate using an Echo550 liquid handler, followed by incubation at 37° C. with 5% CO2 in a cell culture incubator for 3 hours. Subsequently, the cells were fixed with paraformaldehyde, permeabilized with methanol, and blocked with blocking buffer. A primary antibody mixture (rabbit anti-pERK, mouse anti-GAPDH) was added, and the plate was incubated overnight at 4° C. • Day 3: The primary antibodies were removed, and a secondary antibody mixture (goat anti-rabbit 800CW, goat anti-mouse 680RD) was added. The plate was incubated at room temperature in the dark. After three washes with PBST, the plate was inverted and centrifuged for 1 minute. Fluorescence signal values were read using an Odyssey CLx imaging system.
(§5) [formula] • Negative control: DMSO • Positive control: 10 μM Reference • Fitted using XLFit 5.0 with the following parameters:
(§6) [formula] • X: Log of compound concentration • Y: Mean relative expression levels of p-ERK across replicates

pERK in AsPC-1 cells = assay: ERK phosphorylation cell assay, AsPC-1; details: read-out: pERK AsPC-1_IC50
Protocol: [Worded in the source for another cell line; this cell line is reported under the same test.] as §4, §5, §6

[1] = Homo sapiens, ASPC1, AsPC-1 cells

| Compound | IC50 (AGS cells) | IC50 (AsPC-1 cells) | IC50 (pERK in AGS cells) | IC50 (pERK in AsPC-1 cells; AsPC-1 cells) | IC50 (AGS cells; Homo sapiens, AGS, 120 h) [nM] | IC50 (AsPC-1 cells; Homo sapiens, ASPC1, 120 h) [nM] | IC50 (pERK in AGS cells; Homo sapiens, AGS, 3 h) [nM] | also measured |
| --- | --- | --- | --- | --- | --- | --- | --- | --- |
| CN1CCCCCc2c(F)ccc3cc(O)cc(c23)-c2c1cc1c(N3CCC[C@@](C)(O)C3)nc(OC[C@@]34CCCN3C[C@H](F)C4)nc1c2F (single isomer, unassigned) [Example 6A] | 127 nM | 202 nM | 30 nM |  |  |  |  |  |
| CN1CCCCCc2c(F)ccc3cc(O)cc(c23)-c2c1cc1c(N3CCC[C@@](C)(O)C3)nc(OC[C@@]34CCCN3C[C@H](F)C4)nc1c2F (single isomer, unassigned) [Example 6B] | 1040 nM | 1370 nM | 450 nM |  |  |  |  |  |
| C=C1CN2CCC[C@@]2(COc2nc(N3CCC[C@@](C)(O)C3)c3cc4c(c(F)c3n2)-c2cc(O)cc3ccc(F)c(c23)CCOCCN4)C1 (single isomer, unassigned) [Example 42A] | 125 nM | 456 nM | 26 nM | 134 nM |  |  |  |  |
| C=C1CN2CCC[C@@]2(COc2nc(N3CCC[C@@](C)(O)C3)c3cc4c(c(F)c3n2)-c2cc(O)cc3ccc(F)c(c23)CCOCCN4)C1 (single isomer, unassigned) [Example 42B] | 61 nM | 341 nM | 12 nM | 74 nM |  |  |  |  |
| O=C1CCCCc2c(F)ccc3cc(O)cc(c23)-c2c(cc3c(N4CC5CCC(C4)N5)nc(OC[C@@]45CCCN4C[C@H](F)C5)nc3c2F)N1 [Example 4] |  |  |  |  | 848 | 4870 | 331 |  |
| C[C@@]1(O)CCCN(c2nc(OCC34CCCN3CCC4)nc3c(F)c4c(cc23)NCCCCCc2c(F)ccc3cccc-4c23)C1 [Example 7, (R)-1-(3,15-Difluoro-13-((tetrahydro-1H-pyrazin-7a(5H)-yl)methoxy)-4,5,6,7,8,9-hexahydronaphtho[1′,8′:4,5,6]azecino[2,3-g]quinazolin-11-yl)-3-methylpiperidin-3-ol] |  |  |  |  | 2290 | 2860 | 3470 |  |
| C=C1CN2CCCC2(COc2nc(N3CCC[C@@](C)(O)C3)c3cc4c(c(F)c3n2)-c2cc(O)cc3ccc(F)c(c23)CCCCCN4)C1 (stereo partly drawn) [Example 25] |  |  |  |  | 112 | 336 |  |  |
| C[C@@]1(O)CCCN(c2nc(OCC34CCCN3C3CC3C4)nc3c(F)c4c(cc23)NCCCCCc2c(F)ccc3cc(O)cc-4c23)C1 (stereo partly drawn) [Example 37, 3,15-Difluoro-13-((hexahydrocyclopropano[b]pyrrolizin-5a(3H)-yl)methoxy)-11-((R)-3-hydroxy-3-methylpiperidin-1-yl)-4,5,6,7,8,9-hexahydro-naphtho[1′,8′:4,5,6][1]azacycloundecino[2,3-g]quinazoline-17-ol] |  |  |  |  |  |  | 546 | IC50 (pERK in AsPC-1 cells; [1]): 3510 nM |
| [2H]C([2H])([2H])N1C(=O)CCCCc2c(F)ccc3cc(O)cc(c23)-c2c1cc1c(N3CCC[C@@](C)(O)C3)nc(OC[C@@]34CCCN3C[C@H](F)C4)nc1c2F [Example 41, 3,15-Difluoro-13-(((2R,7aS)-2-fluoro-tetrahydro-1H-pyrazin-7a(5H)-yl)methoxy)-17-hydroxy-11-((R)-3-hydroxy-3-methylpiperidin-1-yl)-9-(trideuteromethyl)-4,5,6,7-tetrahydronaphtho[1′,8′:4,5,6][1]azacycloundecino[2,3-g]quinazolin-8(9H)-one] |  |  |  |  |  |  | 307 | IC50 (pERK in AsPC-1 cells; [1]): 2790 nM |
| C=C1CN2CCCC2(COc2nc(N3CCC[C@@](C)(O)C3)c3cc4c(c(F)c3n2)-c2cc(O)cc3ccc(F)c(c23)CCCCCN4C(C)=O)C1 (stereo partly drawn) [Example 44, 1-(3,15-Difluoro-17-hydroxy-11-((R)-3-hydroxy-3-methylpiperidin-1-yl)-13-((2-methylene-tetrahydro-1H-pyrazin-7a(5H)-yl)methoxy)-5,6,7,8-tetrahydronaphtho[1′,8′:4,5,6][1]azacycloundecino[2,3-g]quinazolin-9(4H)-yl)ethan-1-one] |  |  |  |  |  | 3900 |  | IC50 (AGS cells; Homo sapiens, 120 h): 1860 nM; IC50 (pERK in AGS cells; Homo sapiens): 490 nM |
| C=C1CN2CCCC2(COc2nc(N3CCC[C@@](C)(O)C3)c3cc4c(c(F)c3n2)-c2cc(O)cc3ccc(F)c(c23)CCCCCN4S(C)(=O)=O)C1 (stereo partly drawn) [Example 45, 3,15-difluoro-11-((R)-3-hydroxy-3-methylpiperidin-1-yl)-13-((2-methylenetetrahydro-1H-pyrazin-7a(5H)-yl)methoxy)-9-(methylsulfonyl)-4,5,6,7,8,9-hexahydronaphtho[1′,8′:4,5,6][1]azacycloundecano[2,3-g]quinazolin-17-ol] |  |  |  |  | 3210 | 4090 | 3390 |  |
| C=C1CN2CCC[C@@]2(COc2nc(N3CCC[C@@](C)(O)C3)c3cc4c(c(F)c3n2)-c2cc(OC(=O)CCCCCCCCC)cc3ccc(F)c(c23)CCOCCN4C)C1 [Example 51, 3,15-difluoro-11-((R)-3-hydroxy-3-methylpiperidin-1-yl)-9-methyl-13-(((S)-2-methylenetetrahydro-1H-pyrazin-7a(5H)-yl)methoxy)-4,5,8,9-tetrahydro-7H-naphtho[1′,8′:7,8,9111]oxa[4]azacycloundeca[5,6-g]quinazoline-17-yl decanoate] |  |  |  |  |  |  | 2.4 | IC50 (pERK in AsPC-1 cells; [1]): 6.1 nM |
| C=C1CN2CCC[C@@]2(COc2nc(N3CCC[C@@](C)(O)C3)c3cc4c(c(F)c3n2)-c2cccc3ccc(F)c(c23)CCOCCN4)C1 [Example 53, (R)-1-(3,15-difluoro-13-(((S)-2-methylenetetrahydro-1H-pyrazin-7a(5H)-yl)methoxy)-4,5,8,9-tetrahydro-7H-naphtho[1′,8′:7,8,9][1]oxa[4]azacycloundeca[5,6-g]quinazoline-11-yl)-3-methylpiperidin-3-ol] |  |  |  |  |  |  | 2180 | IC50 (pERK in AsPC-1 cells; [1]): 3300 nM |

Further lines, with some results ahead:

| IC50 (AGS cells) | IC50 (AsPC-1 cells) | IC50 (pERK in AGS cells) | IC50 (pERK in AsPC-1 cells; AsPC-1 cells) | IC50 (AGS cells; Homo sapiens, AGS, 120 h) [nM] | IC50 (AsPC-1 cells; Homo sapiens, ASPC1, 120 h) [nM] | IC50 (pERK in AGS cells; Homo sapiens, AGS, 3 h) [nM] | Compound | also measured |
| --- | --- | --- | --- | --- | --- | --- | --- | --- |
| 22 nM and 24 nM | 60 nM and 55 nM | 4.6 nM | 15 nM |  |  |  | 3,15-difluoro-13-((2R,7aS)-2-fluorotetrahydro-1H-pyrazin-7a(5H)-yl)methoxy)-11-((R)-3-hydroxy-3-methylpiperidin-1-yl)-4,5,8,9-tetrahydro-7H-naphtho[1′,8′:7,8,9][1]oxa[4]azacycloundeca[5,6-g]quinazoline-17-ol [Example 43A] |  |
|  |  | 93 nM and 99 nM | 938 nM and 721 nM | 226 | 2630 |  | C[C@@]1(O)CCCN(c2nc(OCC34CCCN3CCC4)nc3c(F)c4c(cc23)NCCCCCc2c(F)ccc3cc(O)cc-4c23)C1 (single isomer, unassigned) [Example 21A] |  |
| 90 nM | 166 nM | 26 nM | 85 nM |  |  |  | C=C1CN2CCCC2(COc2nc(N3CCC[C@@](C)(O)C3)c3cc4c(c(F)c3n2)-c2cc(O)cc3ccc(F)c(c23)CCCCCN4C)C1 (single isomer, unassigned) [Example 22A] |  |
| 553 nM | 1790 nM | 430 nM | 898 nM |  |  |  | C=C1CN2CCCC2(COc2nc(N3CCC[C@@](C)(O)C3)c3cc4c(c(F)c3n2)-c2cc(O)cc3ccc(F)c(c23)CCCCCN4C)C1 (single isomer, unassigned) [Example 22B] |  |
|  |  | 91 nM | 352 nM | 508 | 847 |  | C[C@@]1(O)CCCN(c2nc(OCC34CCCN3C[C@]3(C4)CC3(F)F)nc3c(F)c4c(cc23)NCCCCCc2c(F)ccc3cc(O)cc-4c23)C1 (single isomer, unassigned) [Example 24A] |  |
| 430 nM | 1760 nM | 194 nM | 776 nM |  |  |  | CN1CCC[C@H]1COc1nc(N2CCC[C@@](C)(O)C2)c2cc3c(c(F)c2n1)-c1cc(O)cc2ccc(F)c(c12)CCCCCN3 (single isomer, unassigned) [Example 28A] |  |
| 3360 nM | 3550 nM | > 10000 nM | > 10000 nM |  |  |  | CN1CCC[C@H]1COc1nc(N2CCC[C@@](C)(O)C2)c2cc3c(c(F)c2n1)-c1cc(O)cc2ccc(F)c(c12)CCCCCN3 (single isomer, unassigned) [Example 28B] |  |
|  | 1490 nM |  |  | 2310 |  | > 10000 | C[C@@]1(O)CCCN(c2nc(OCC3(N4CCOCC4)CC3)nc3c(F)c4c(cc23)NCCCCCc2c(F)ccc3cc(O)cc-4c23)C1 (single isomer, unassigned) [Example 33A] | IC50 (pERK in AsPC-1 cells; [1]): > 10000 nM |
| 3080 nM | 4670 nM | > 10000 nM | > 10000 nM |  |  |  | C[C@@]1(O)CCCN(c2nc(OCC3(N4CCOCC4)CC3)nc3c(F)c4c(cc23)NCCCCCc2c(F)ccc3cc(O)cc-4c23)C1 (single isomer, unassigned) [Example 33B] |  |

Source: US20260049089A1, “KRAS INHIBITOR COMPOUND” (SHANGHAI APEIRON THERAPEUTICS COMPANY LIMITED, priority 2022, published 2026)
